Earlier results as cited in patent publication US12370168B2 (scPharmaceuticals Inc., priority 2013, dated 2025).

Settings: as described in the '361 patent; cited from earlier work

**Q.** Which pH does the source give for `NC(CO)(CO)CO.NS(=O)(=O)c1cc(C(=O)O)c(NCc2ccco2)cc1Cl` [tris(hydroxymethyl)aminomethane salt of furosemide] here?
**A.** The pH was 6-6.5.
